Source: patent US12588678B2, “Oxazoline compound, synthesis method therefor and application thereof” (NANKAI UNIVERSITY, priority 2019, dated 2026)
Several values for one entry are separate records, joined by “and”; a condition that tells them apart may be missing. Identical values can stand only once.

How the values were obtained:
[1] = test system: Tetranychus cinnabarinus mite larvae; assay: Larvicidal activity test, dipping method on bean seedling leaves; assay type: in vivo; settings: for mortality at 0.1 µg/mL / mortality at 1 µg/mL / mortality at 10 µg/mL / mortality at 100 µg/mL / mortality at 200 µg/mL / mortality at 0.01 µg/mL / mortality at 0.05 µg/mL / mortality at 0.5 µg/mL: Tetranychus cinnabarinus, 96 h; for mortality at 0.1 µg/mL: read-out: mortality of mite larvae (%), 0.1 mg/L; for mortality at 1 µg/mL: read-out: mortality of mite larvae (%), 1 mg/L; for mortality at 10 µg/mL: read-out: mortality of mite larvae (%), 10 mg/L; for mortality at 100 µg/mL: read-out: mortality of mite larvae (%), 100 mg/L; for mortality at 200 µg/mL: read-out: mortality of mite larvae (%), 200 mg/L; for mortality at 0.01 µg/mL: read-out: mortality of mite larvae (%), 0.01 mg/L; for mortality at 0.05 µg/mL: read-out: mortality of mite larvae (%), 0.05 mg/L; for mortality at 0.5 µg/mL: read-out: mortality of mite larvae (%), 0.5 mg/L
Method in brief: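 Dipping method: larvae-infested bean seedling leaves were immersed 5–6 s in Tween-containing test solution, with a blank of additives only. Larvae had hatched over 5 days from eggs laid during 24 h at 25° C. Mortality % was counted 4 days later, in triplicate.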

[2] = test system: Tetranychus cinnabarinus mite eggs; assay: Activity against mite eggs, dipping method on bean seedling leaves; assay type: in vivo; settings: for mortality at 1 µg/mL: read-out: mortality of mite eggs (%), 1 mg/L; for mortality at 10 µg/mL: read-out: mortality of mite eggs (%), 10 mg/L; for mortality at 100 µg/mL: read-out: mortality of mite eggs (%), 100 mg/L; for mortality at 200 µg/mL: read-out: mortality of mite eggs (%), 200 mg/L; for mortality at 0.5 µg/mL: read-out: mortality of mite eggs (%), 0.5 mg/L
Method in brief: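 Dipping method, three replicates each: leaves carrying 1-day-old mite eggs (24 h laying at 25° C.) immersed 5-6 s in compound solution or additive-only blank. Dead eggs counted 4 days later as percent of eggs treated.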

[3] = Tetranychus cinnabarinus, 96 h, checked after 4 days

Row | Structure (SMILES) | mortality at 0.1 µg/mL ([1]; checked after 4 days) [%] | mortality at 1 µg/mL ([1]; checked after 4 days) [%] | mortality at 10 µg/mL ([1]; checked after 4 days) [%] | mortality at 100 µg/mL ([1]; checked after 4 days) [%] | mortality at 200 µg/mL ([1]; checked after 4 days) [%] | mortality at 1 µg/mL [2, 3] [%] | mortality at 10 µg/mL [2, 3] [%] | mortality at 100 µg/mL [2, 3] [%] | mortality at 200 µg/mL [2, 3] [%] | other results
1 | O=S(=O)(Oc1ccc(C2COC(c3c(F)cccc3F)=N2)cc1)c1ccc(C(F)(F)F)cc1 (stereo not drawn) [Compound R3-13] | 60 | 80 | 95 | 100 | 100 | 70 | 90 | 100 | 100 | –
2 | O=S(=O)(Oc1ccc(C2COC(c3c(F)cccc3F)=N2)cc1)c1ccc(F)cc1F (stereo not drawn) [Compound R3-14] | 60 | 80 | 95 | 100 | 100 | 50 | 85 | 90 | 100 | –
3 | O=S(=O)(Oc1ccc(C2COC(c3c(F)cccc3F)=N2)cc1)c1ccc(F)c(F)c1F (stereo not drawn) [Compound R3-15] | 65 | 90 | 100 | 100 | 100 | 65 | 95 | 100 | 100 | –
4 | Cc1ccc(S(=O)(=O)Oc2ccc(C3COC(c4c(F)cccc4F)=N3)cc2)cc1 (stereo not drawn) [Compound R3-16] | – | 70 | 85 | 100 | 100 | 50 | 70 | 92 | 100 | –
5 | CC(C)(C)c1ccc(S(=O)(=O)Oc2ccc(C3COC(c4c(F)cccc4F)=N3)cc2)cc1 (stereo not drawn) [Compound R3-17] | 85 | 95 | 100 | 100 | 100 | 90 | 96 | 100 | 100 | acaricidal activity compared with etoxazole ([1]; Tetranychus cinnabarinus eggs and larvae, etoxazole as reference): equivalent or better acaricidal activity compared with etoxazole; mortality at 0.01 µg/mL ([1]; checked after 4 days): 35%; mortality at 0.05 µg/mL ([1]; checked after 4 days): 50%; mortality at 0.5 µg/mL ([1]; checked after 4 days): 90%; mortality at 0.1 µg/mL ([2]; Tetranychus cinnabarinus, 96 h, read-out: mortality of mite eggs (%), 0.1 mg/L, checked after 4 days): 45%; mortality at 0.5 µg/mL [2, 3]: 78%
6 | O=S(=O)(Oc1ccc(C2COC(c3c(F)cccc3F)=N2)cc1)c1ccc2c(c1)OCCO2 (stereo not drawn) [Compound R3-18] | – | 50 | 70 | 90 | 100 | – | 50 | 70 | 100 | –
7 | O=S(=O)(Oc1ccc(C2COC(c3c(F)cccc3F)=N2)cc1)c1cccc2ccccc12 (stereo not drawn) [Compound R3-20] | – | 55 | 80 | 90 | 100 | 30 | 70 | 80 | 100 | –
8 | O=S(=O)(Oc1ccc(C2COC(c3c(F)cccc3F)=N2)cc1)c1ccc2ccccc2c1 (stereo not drawn) [Compound R3-21] | 65 | 95 | 100 | 100 | 100 | 65 | 90 | 95 | 100 | –
9 | N#Cc1ccc(S(=O)(=O)Oc2ccc(C3COC(c4c(F)cccc4F)=N3)cc2)cc1 (stereo not drawn) [Compound R3-22] | – | 40 | 70 | 95 | 100 | 45 | 70 | 90 | 100 | –
10 | CCOc1cc(C(C)(C)C)ccc1C1COC(c2c(F)cccc2F)=N1 (stereo not drawn) [Etoxazole, reference compound] | 65 | 80 | 90 | 100 | 100 | 70 | 90 | 100 | 100 | mortality of mite larvae (%) ([1]; 10 mg/L, checked after 4 days): 100%; mortality at 0.01 µg/mL ([1]; checked after 4 days): 30%; mortality at 0.05 µg/mL ([1]; checked after 4 days): 30%; mortality at 0.5 µg/mL ([1]; checked after 4 days): 80%; mortality of mite eggs (%) ([2]; 0.1 mg/L, checked after 4 days): 60%; mortality of mite eggs (%) ([2]; 0.5 mg/L, checked after 4 days): 60%; mortality of mite eggs (%) ([2]; 10 mg/L, checked after 4 days): 100% and 95%; LC50 ([2]; Tetranychus cinnabarinus, 96 h, read-out: LC50 (against mite eggs), mite eggs, from regression y = ax + b): 0.128 µg/mL; mortality at 0.01 µg/mL ([2]; Tetranychus cinnabarinus, 96 h, read-out: mortality of mite eggs (%), 0.01 mg/L, checked after 4 days): 30%; mortality at 0.05 µg/mL ([2]; Tetranychus cinnabarinus, 96 h, read-out: mortality of mite eggs (%), 0.05 mg/L, checked after 4 days): 30%; mortality at 0.5 µg/mL [2, 3]: 80%
